{"source": "patent US6239182A", "about": "“Method for preventing sexually transmitted diseases” (priority 1999, dated 2001)", "key": {"MT2 cells": {"tested_on": "MT2 cells", "test": "cytotoxicity towards host cells in the viral-binding inhibition assay", "assay_type": "cell-based", "details": "at the concentration ranges used in the viral-binding inhibition assay", "procedure": "Serial dilutions of the test compounds (ranging from 0.1 μg/ml to 1.0 mg/ml) were added to HIV-1 virus such that 50 μl inoculum produced between 70 to 100 syncytia per well in untreated wells containing MT2 cells. The HIV-1 used was strain IIIs propagated in, and harvested from, a T4-lymphobastoid cell line. Each serial dilution of the test compound with virus was placed in each of three wells containing MT2 cells. The test compound alone was added to a fourth well containing MT2 cells to test for possible cytotoxicity. Triplicate virus control samples (no added test compounds but containing the equivalent amounts of the RPMI medium) were also included."}, "[1]": {"tested_on": "sheep testicular hyaluronidase", "test": "hyaluronidase inhibition (hyaluronic acid hydrolysis)", "assay_type": "biochemical", "details": "pH 5.5, 10 minutes preincubation; inactive = no inhibition at 1 mg/ml", "procedure": "Hyaluronidase activity was quantitatively determined by measuring the extent of hyaluronic acid hydrolysis (i.e., the concentration of N-acetylglucosamine-reactive material formed from enzyme activity). Reaction mixtures (0.25 ml) containing the following were prepared: test compound (variable concentration); 0.1 M sodium acetate; 0.15 M sodium chloride; pH adjusted to 5.5; 7.2 units sheep testicular hyaluronidase (Sigma, Type III; H-2251) contained in an acetate buffer; 0.3 mg/ml hyaluronic acid (Sigma, from bovine vitreous humor; H-7630). The enzyme was preincubated with the test agent (1 mg/ml for screening purposes) for 10 minutes before starting the reaction by the addition of hyaluronic acid. The enzyme reaction was determined using the method of Aronson and Davidson (J. Biol. Chem. 241 437-440 (1967)). The reaction mixture was incubated for 30 minutes at room temperature.\nThe reversibility of the hyaluronidase was determined by evaluating enzyme activity at different levels of enzyme (Ackermann and Potter, Proc. Soc. Exp. Biol. Med. 72 1-9 (1949))."}, "Lactobacillus gasseri": {"tested_on": "Lactobacillus gasseri", "test": "effect on normal vaginal flora (Lactobacillus growth in culture)", "assay_type": "cell-based", "details": "at 0.5 mg/ml", "procedure": "This example illustrates the effect of the inhibitory agents of this invention on the normal vaginal flora. Lactobacillus gasseri, which is found in normal vaginal flora, was obtained from the American Type Culture Collection (Rockville, Md.) and cultured under anaerobic conditions at 37° C. in the presence of the desired test agents. Control samples without added test agents were also run. Samples were collected at twenty minute intervals starting at 120 minutes after the start of incubation through 240 minutes. The absorbance at 550 nm was used to estimate the cell density and inhibitory effects. Nonoxynol-9 was also evaluated for comparison purposes."}, "HIV-1": {"tested_on": "HIV-1", "details": "comparison statement, no data given; cited from earlier work"}, "[2]": {"tested_on": "vaginal/cervical epithelial and other cells", "details": "background statement; cited from earlier work"}}}
{"substance": "Nonoxynol-9", "values": [{"measurement": "toxicity towards the host cells (MT2)", "setting": "MT2 cells", "result": "did show cytotoxic effects"}, {"measurement": "IC50 (hyaluronidase)", "setting": "[1]", "result": "inactive"}, {"measurement": "inhibition of Lactobacillus gasseri growth", "setting": "Lactobacillus gasseri", "result": "about 60%"}, {"measurement": "inhibition of the enveloped virus HIV (in words)", "setting": "HIV-1", "result": "inhibits"}, {"measurement": "lowest concentration that can injure vaginal/cervical epithelial and other cells", "setting": "[2]", "result": "about 0.0005%"}]}
